# Several values for one entry are separate records, joined by “and”; a condition that tells them apart may be missing. Identical values can stand only once. Like-named read-outs stand apart in the source and are kept apart here. Positions of bridges follow the written chain, without caps; N, C: chain ends. Residues, ends and D or L forms follow the SMILES beside them. *: point of attachment. 5FAM = O=C1OC2(c3ccc(O)cc3Oc3cc(O)ccc32)c2ccc(C(=O)*)cc21
# Assays:
# human plasma IgG4 [1] = molecular target: T1, human plasma IgG4 (Homo sapiens, UniProt P01861); test: Fluorescence anisotropy binding, fluorescein-labeled peptide; details: 2 nM labeled peptide; PBS with 0.01% Tween 20
# T1 construct: the individual human plasma IgG isoforms: IgG1, IgG2, IgG3, or IgG4; purchased Calbiochem; host or cells: human plasma
# Description: (§1) Peptides were synthesized by BACHEM Bioscience, Inc., (King of Prussia, Pa.), fluorescein labeled and purified by HPLC. Binding studies were performed using either a mixture of human plasma IgG isoforms (the Fc target) or the individual human plasma IgG isoforms: IgG1, IgG2, IgG3, or IgG4. All Fc target proteins were obtained from Calbiochem.
# (§2) All measurements were performed in 384 well microplates with 20 nM fluorescein-labeled peptide and various concentrations of the IgG isoform in a volume of between 10 and 20 μl using a Tecan Polarion fluorescence polarization plate reader. All binding buffers included 0.01% (v/v) Tween 20 to prevent peptide adsorption to the microplate. The binding mixture was equilibrated for 10 minutes in the microplate at 30° C. prior to performing the measurement.
# (§3) Peptides were synthesized, fluorescein-labeled and HPLC purified as described above. Binding studies were performed using either a mixture of human plasma IgG isoforms (the Fc protein) or the individual human plasma IgG isoforms: IgG1, IgG2, IgG3, or IgG4.
# (§4) Measurements were performed in 384-well microplates with 2 nM fluorescein-labeled peptide and a varied concentration of the IgG isoform target in a volume of 10 μl using a Tecan Polarion fluorescence polarization plate reader. The Fc binding buffer was 50 mM Tris-HCl, 200 mM NaCl, pH 8.0, 0.01% Tween 20. The IgG binding buffer was PBS with 0.01% Tween 20. The binding mixtures were equilibrated for 10 minutes in the microplate at 30° C. prior to performing the measurements.
# [2] = molecular target: Fc (mixture of human plasma IgG isoforms); test: as above; details: 2 nM labeled peptide; 50 mM Tris-HCl, 200 mM NaCl, pH 8.0, 0.01% Tween 20
# Description: as §1, §2, §3, §4
# human plasma IgG2 [3] = molecular target: T2, human plasma IgG2 (Homo sapiens, UniProt P01859); test: as above; details: 2 nM labeled peptide; PBS with 0.01% Tween 20
# T2 construct: the individual human plasma IgG isoforms: IgG1, IgG2, IgG3, or IgG4; purchased Calbiochem; host or cells: human plasma
# Description: as §2, §3, §4
# human plasma IgG1 [4] = molecular target: T3, human plasma IgG1 (Homo sapiens, UniProt P01857); test: as above; details: 2 nM labeled peptide; PBS with 0.01% Tween 20
# T3 construct: the individual human plasma IgG isoforms: IgG1, IgG2, IgG3, or IgG4; purchased Calbiochem; host or cells: human plasma
# Description: as §2, §3, §4
# human plasma IgG3 [5] = molecular target: T4, human plasma IgG3 (Homo sapiens, UniProt P01860); test: Fluorescence anisotropy binding, Oregon Green labeled peptide
# T4 construct: the individual human plasma IgG isoforms: IgG1, IgG2, IgG3, or IgG4; purchased Calbiochem; host or cells: human plasma
# Description: (§5) Peptides were synthesized by BACHEM and then Oregon Green labeled and HPLC purified. Binding studies were performed using human plasma IgG isoforms: IgG1, IgG2, IgG3, and IgG4, obtained from Calbiochem.
# (§6) Binding studies were carried out at either pH 4.0, 7.5, or 9.5, with or without salt in the following buffers:
# (§7) 2) 10 mM Sodium Citrate, 500 mM Sodium Chloride, 0.01% Tween 20, pH 4.0;
# (§8) 4) […], 500 mM Sodium Chloride, 0.01% Tween 20, pH 7.5;
# (§9) 5) 10 mM Sodium Bicarbonate, 0.01% Tween 20, pH 9.5;
# (§10) 6) 10 mM Sodium Bicarbonate, 500 mM Sodium Chloride, 0.01% Tween 20, pH 9.5; or […]
# human plasma IgG2 [6] = molecular target: T2, human plasma IgG2; test: as above
# Description: as §5, §6, §7, §8, §9, §10
# human plasma IgG4 [7] = molecular target: T1, human plasma IgG4; test: as above
# Description: as §5, §6, §7, §8, §9, §10
# human plasma IgG1 [8] = molecular target: T3, human plasma IgG1; test: as above
# Description: as §5, §6, §7, §8, §9, §10
# IgG4 = IgG4 (Homo sapiens, UniProt P01861); type: binding; design: all human subtypes derived from myeloma patients; purchased Calbiochem 400126; host or cells: myeloma patients; details: Table 9; immobilized peptide, 5.0 mg/ml resin load
# How it was run: (§11)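 Read-out is A280 of unbound IgG (1.4 mg/ml extinction coefficient), with percent bound derived against non-filtered or negative controls. Targets were incubated with immobilized peptides in PBST or TBST for 1-1.5 h at room temperature. Hydrolyzed Sepharose and immobilized Protein A serve as negative and positive controls.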
# bovine IgG = type: binding; details: Table 11; unfractionated IgG
# How it was run: (§12)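 Steps: dilute IgG in PBST or TBST; incubate with immobilized peptide 1-1.5 h, RT; collect unbound by centrifugation; measure A280; wash three times; elute with 0.1 M sodium bicarbonate pH 8.5 and/or 0.1 M sodium citrate pH 4.0 for 30-60 min and quantitate.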
# human IgG1 = molecular target: T5, human IgG1 (Homo sapiens, UniProt P01857); type: binding; details: Table 9; immobilized peptide, 5.0 mg/ml resin load
# T5 construct: all human subtypes derived from myeloma patients; purchased Calbiochem 400120; host or cells: myeloma patients
# How it was run: (§13)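 Static binding, peptide resin + IgG, 1-1.5 h RT with shaking, PBST pH 7.2 or TBST pH 7.5. Flow-through read at A280 vs buffer blank; % bound = control minus unbound. Elution at pH 8.5 bicarbonate and/or pH 4.0 citrate, 30-60 min.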
# human IgG2 = molecular target: T6, human IgG2 (Homo sapiens, UniProt P01859); type: binding; details: Table 9; immobilized peptide, 5.0 mg/ml resin load
# T6 construct: all human subtypes derived from myeloma patients; purchased Calbiochem 400122; host or cells: myeloma patients
# How it was run: as §11
# human IgG = type: binding; details: Table 11; unfractionated IgG
# How it was run: as §12
# mouse IgG = type: binding; details: Table 11; unfractionated IgG
# How it was run: as §12
# goat IgG = type: binding; details: Table 11; unfractionated IgG
# How it was run: as §12
# IgG3 = IgG3 (Homo sapiens, UniProt P01860); type: binding; design: all human subtypes derived from myeloma patients; purchased Calbiochem 400124; host or cells: myeloma patients; details: Table 9; immobilized peptide, 5.0 mg/ml resin load
# How it was run: as §13
# human plasma IgG3 [9] = molecular target: T4, human plasma IgG3; test: Fluorescence anisotropy binding, fluorescein-labeled peptide; details: 2 nM labeled peptide; PBS with 0.01% Tween 20
# Description: as §1, §2, §3, §4
# T4 sequence (P01860 1-377 isoform P01860-1): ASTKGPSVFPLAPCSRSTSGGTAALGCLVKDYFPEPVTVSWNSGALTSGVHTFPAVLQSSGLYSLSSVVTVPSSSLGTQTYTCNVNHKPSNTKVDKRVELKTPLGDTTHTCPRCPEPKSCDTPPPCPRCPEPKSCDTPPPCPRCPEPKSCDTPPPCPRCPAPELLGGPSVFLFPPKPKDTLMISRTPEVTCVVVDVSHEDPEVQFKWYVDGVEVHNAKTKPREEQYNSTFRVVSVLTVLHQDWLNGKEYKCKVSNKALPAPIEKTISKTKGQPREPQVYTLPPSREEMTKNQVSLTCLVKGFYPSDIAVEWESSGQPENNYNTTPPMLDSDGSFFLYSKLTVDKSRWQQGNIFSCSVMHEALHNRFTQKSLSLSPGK
# T2 sequence (P01859 1-326 isoform P01859-1): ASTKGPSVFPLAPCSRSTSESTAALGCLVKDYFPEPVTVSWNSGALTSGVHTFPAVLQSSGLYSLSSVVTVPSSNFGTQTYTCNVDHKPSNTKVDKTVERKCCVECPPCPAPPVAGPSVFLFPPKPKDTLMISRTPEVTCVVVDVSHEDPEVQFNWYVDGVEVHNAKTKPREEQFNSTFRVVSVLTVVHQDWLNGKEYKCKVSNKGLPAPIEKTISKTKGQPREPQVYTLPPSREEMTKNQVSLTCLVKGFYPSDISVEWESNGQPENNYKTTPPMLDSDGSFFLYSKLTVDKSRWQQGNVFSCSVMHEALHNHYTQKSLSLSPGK
# T1 sequence (P01861 1-327 isoform P01861-1): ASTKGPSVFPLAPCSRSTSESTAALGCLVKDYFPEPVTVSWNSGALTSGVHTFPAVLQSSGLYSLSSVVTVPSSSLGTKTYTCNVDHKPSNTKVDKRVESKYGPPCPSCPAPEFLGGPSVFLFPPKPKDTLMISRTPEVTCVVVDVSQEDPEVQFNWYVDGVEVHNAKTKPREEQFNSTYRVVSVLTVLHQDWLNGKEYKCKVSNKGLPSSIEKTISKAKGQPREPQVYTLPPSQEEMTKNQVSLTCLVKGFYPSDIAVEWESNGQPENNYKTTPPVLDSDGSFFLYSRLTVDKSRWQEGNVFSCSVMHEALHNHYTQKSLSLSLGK
# T3 sequence (P01857 1-330 isoform P01857-1): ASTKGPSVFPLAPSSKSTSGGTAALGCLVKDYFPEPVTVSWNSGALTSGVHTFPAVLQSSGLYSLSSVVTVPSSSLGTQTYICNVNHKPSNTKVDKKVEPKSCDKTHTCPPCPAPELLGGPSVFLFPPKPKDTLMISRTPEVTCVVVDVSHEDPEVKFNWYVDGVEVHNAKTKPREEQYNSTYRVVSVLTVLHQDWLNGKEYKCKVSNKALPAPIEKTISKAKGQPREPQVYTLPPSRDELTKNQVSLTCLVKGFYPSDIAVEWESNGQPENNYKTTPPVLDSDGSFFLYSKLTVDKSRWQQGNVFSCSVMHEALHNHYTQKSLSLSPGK
# Sequence of IgG3 (P01860 1-377 isoform P01860-1): as the sequence (P01860 1-377 isoform P01860-1) above
# T6 sequence (P01859 1-326 isoform P01859-1): as the sequence (P01859 1-326 isoform P01859-1) above
# Sequence of IgG4 (P01861 1-327 isoform P01861-1): as the sequence (P01861 1-327 isoform P01861-1) above
# T5 sequence (P01857 1-330 isoform P01857-1): as the sequence (P01857 1-330 isoform P01857-1) above
structure (smiles),measurement,setting,value
CC(=O)N[C@@H](C)C(=O)NCC(=O)N[C@@H](CCCCN)C(=O)N[C@@H](Cc1ccc(O)cc1)C(=O)N[C@@H](Cc1c[nH]c2ccccc12)C(=O)N[C@H]1CSSC[C@@H](C(=O)N[C@@H](CCCCN)C(=O)N[C@H](C(=O)NCC(=O)N[C@H](C(=O)N2CCC[C@H]2C(=O)NCC(=O)N2CCC[C@H]2C(=O)N[C@@H](CCC(=O)O)C(=O)NCC(=O)NCC(=O)NCC(=O)N[C@@H](CCCCNC(=O)c2ccc3c(c2)C(=O)OC32c3ccc(O)cc3Oc3cc(O)ccc32)C(N)=O)[C@@H](C)O)[C@@H](C)O)NC(=O)[C@H](CCC(N)=O)NC(=O)[C@H](CC(C)C)NC(=O)CNC(=O)[C@H](Cc2c[nH]c3ccccc23)NC(=O)[C@H](Cc2ccccc2)NC(=O)[C@H](CO)NC1=O [DX300] (Ac-AGKYWCSFWGLQCKTGTPGPEGGGK(5FAM)-NH2; disulfide 6-13),KD (μM) IgG4,human plasma IgG4 [1],No binding
same,KD (μM) Fc,[2],No binding
same,KD (μM) IgG2,human plasma IgG2 [3],No binding
same,KD (μM) IgG1,human plasma IgG1 [4],No binding
CC(=O)N[C@@H](C)C(=O)NCC(=O)N[C@H](C(=O)N[C@@H](Cc1ccc(O)cc1)C(=O)N[C@@H](Cc1c[nH]c2ccccc12)C(=O)N[C@H]1CSSC[C@@H](C(=O)N[C@@H](CC(=O)O)C(=O)N2CCC[C@H]2C(=O)N[C@@H](C)C(=O)N2CCC[C@H]2C(=O)NCC(=O)N2CCC[C@H]2C(=O)N[C@@H](CCC(=O)O)C(=O)NCC(=O)NCC(=O)NCC(=O)N[C@@H](CCCCN)C(N)=O)NC(=O)[C@@H]2CCCN2C(=O)[C@H](CC(C)C)NC(=O)[C@H](CCC(=O)O)NC(=O)[C@H](Cc2c[nH]c3ccccc23)NC(=O)[C@H](Cc2ccccc2)NC(=O)[C@H]([C@@H](C)O)NC1=O)[C@@H](C)O [DX404],Kd,"human plasma IgG3 [5]; 10 mM Sodium Bicarbonate, 500 mM Sodium Chloride, pH 9.5, read-out: KD (μM) IgG3 pH 9.5 + salt",> 10 µM
same,Kd,"human plasma IgG3 [5]; 10 mM Sodium Bicarbonate, pH 9.5, read-out: KD (μM) IgG3 pH 9.5 − salt",> 10 µM
same,Kd,"human plasma IgG3 [5]; 10 mM Sodium Citrate, 500 mM Sodium Chloride, pH 4.0, read-out: KD (μM) IgG3 pH 4.0 + salt",0.2 µM
same,Kd,"human plasma IgG3 [5]; 10 mM Sodium Citrate, pH 4.0, read-out: KD (μM) IgG3 pH 4.0 − salt",~0.01 µM and 0.01 µM
same,Kd,"human plasma IgG2 [6]; 10 nM Tris-HCl, 500 mM Sodium Chloride, pH 7.5, read-out: KD (μM) IgG2 pH 7.5 + salt",> 10 µM
same,Kd,"human plasma IgG2 [6]; 10 mM Sodium Bicarbonate, 500 mM Sodium Chloride, pH 9.5, read-out: KD (μM) IgG2 pH 9.5 + salt",> 10 µM
same,Kd,"human plasma IgG2 [6]; 10 mM Sodium Bicarbonate, pH 9.5, read-out: KD (μM) IgG2 pH 9.5 − salt",> 10 µM
same,Kd,"human plasma IgG2 [6]; 10 mM Sodium Citrate, 500 mM Sodium Chloride, pH 4.0, read-out: KD (μM) IgG2 pH 4.0 + salt",~2 µM and 2 µM
same,Kd,"human plasma IgG2 [6]; 10 mM Sodium Citrate, pH 4.0, read-out: KD (μM) IgG2 pH 4.0 − salt",~2 µM
same,Kd,"human plasma IgG4 [7]; 10 nM Tris-HCl, 500 mM Sodium Chloride, pH 7.5, read-out: KD (μM) IgG4 pH 7.5 + salt",> 10 µM
same,Kd,"human plasma IgG4 [7]; 10 mM Sodium Bicarbonate, 500 mM Sodium Chloride, pH 9.5, read-out: KD (μM) IgG4 pH 9.5 + salt",> 10 µM
same,Kd,"human plasma IgG4 [7]; 10 mM Sodium Bicarbonate, pH 9.5, read-out: KD (μM) IgG4 pH 9.5 − salt",> 10 µM
same,Kd,"human plasma IgG4 [7]; 10 mM Sodium Citrate, 500 mM Sodium Chloride, pH 4.0, read-out: KD (μM) IgG4 pH 4.0 + salt",> 10 µM
same,Kd,"human plasma IgG4 [7]; 10 mM Sodium Citrate, pH 4.0, read-out: KD (μM) IgG4 pH 4.0 − salt",> 10 µM
same,Kd,"human plasma IgG4 [7]; 10 mM Tris-HCl, pH 7.5, read-out: KD (μM) IgG4 pH 7.5 − salt",> 10 µM
same,Kd,"human plasma IgG1 [8]; 10 nM Tris-HCl, 500 mM Sodium Chloride, pH 7.5, read-out: KD (μM) IgG1 pH 7.5 + salt",> 10 µM
same,Kd,"human plasma IgG1 [8]; 10 mM Sodium Bicarbonate, 500 mM Sodium Chloride, pH 9.5, read-out: KD (μM) IgG1 pH 9.5 + salt",> 10 µM
same,Kd,"human plasma IgG1 [8]; 10 mM Sodium Bicarbonate, pH 9.5, read-out: KD (μM) IgG1 pH 9.5 − salt",> 10 µM
same,Kd,"human plasma IgG1 [8]; 10 mM Sodium Citrate, 500 mM Sodium Chloride, pH 4.0, read-out: KD (μM) IgG1 pH 4.0 + salt",~2 µM and 2 µM
same,Kd,"human plasma IgG1 [8]; 10 mM Sodium Citrate, pH 4.0, read-out: KD (μM) IgG1 pH 4.0 − salt",~2 µM
same,"% IgG Capture - Batch Binding, Human IgG4",IgG4,10%
same,"% IgG Capture - Batch Binding, Bovine IgG",bovine IgG,0%
same,"% IgG Capture - Batch Binding, Human IgG1",human IgG1,38%
same,"% IgG Capture - Batch Binding, Human IgG2",human IgG2,11%
same,"% IgG Capture - Batch Binding, Human IgG",human IgG,30%
same,"% IgG Capture - Batch Binding, Mouse IgG",mouse IgG,2%
same,"% IgG Capture - Batch Binding, Goat IgG",goat IgG,0%
same,"% IgG Capture - Batch Binding, Human IgG3",IgG3,74%
CC(=O)NCC(=O)N[C@@H](CC(=O)O)C(=O)N[C@@H](CCCNC(=N)N)C(=O)N[C@@H](CCCNC(=N)N)C(=O)N[C@@H](C)C(=O)N[C@H]1CSSC[C@@H](C(=O)N[C@@H](C)C(=O)NCC(=O)N[C@@H](Cc2c[nH]cn2)C(=O)N[C@@H](CCC(=O)O)C(=O)N2CCC[C@H]2C(=O)NCC(=O)N2CCC[C@H]2C(=O)N[C@@H](CCC(=O)O)C(=O)NCC(=O)NCC(=O)NCC(=O)N[C@@H](CCCCNC(=O)c2ccc3c(c2)C(=O)OC32c3ccc(O)cc3Oc3cc(O)ccc32)C(N)=O)NC(=O)[C@H](Cc2c[nH]c3ccccc23)NC(=O)[C@H](C(C)C)NC(=O)[C@H](CC(C)C)NC(=O)[C@H](C)NC(=O)CNC(=O)[C@H](CO)NC(=O)[C@H](Cc2c[nH]c3ccccc23)NC(=O)[C@H](CC(=O)O)NC(=O)[C@H](CCCNC(=N)N)NC(=O)[C@H](CO)NC1=O [DX301] (Ac-GDRRACSRDWSGALVWCAGHEPGPEGGGK(5FAM)-NH2; disulfide 6-17),KD (μM) IgG3,human plasma IgG3 [9],No binding
same,Kd,[2],6.8 ± 4.3 µM

# — patent publication US20030199671A1, “Binding molecules for Fc-region polypeptides” (priority 2001, published 2003)
